Patent US20220054501A1, “[…] ESTROGEN-RECEPTOR b (ER.beta) POSITIVE BREAST TUMOR” (DCIC Biopharmaceutical Limited, priority 2018, published 2022)

Legend:
MDA-MB-231 cells = test: inhibition of proliferation of MDA MB-231 cells; assay type: cell-based, human
Protocol: MDA-MB-231 cell line is a highly aggressive, invasive, and poorly differentiated epithelial human breast cancer cell line. It lacks estrogen receptor a (ERα) and progesterone receptor (PR) expression, as well as HER2 (human epidermal growth factor 2) amplification. MDA-MB-231 cell line is ERβ positive. It is a model cell line for triple negative breast cancer (TNBC) being ERβ positive.
Two different concentrations of MDA-MB-231 cells (1.0e3 and 2.5e3) were incubated with increasing concentrations of 4-OHT (K+; 0.5 μM; 1 μM; 5 μm; 10 μM; 20 μM). The cells were incubated for 6 days (d). Then, absorption at 492 nm was measured.

[1] = tested on: ERβ positive breast cancer; test: treatment success of Anastrozol and Letrozol compared with the topical prodrug (Example 2); assay type: in vivo, human; details: for treatment success: patients, treated according to current treatment guidelines
Protocol: Studies were carried out on patients suffering from ERβ positive breast cancer.
First, the patients were treated with non-steroidal aromatase-inhibitors Anastrozol or Letrozol, the treatment was carried out according to the respective current treatment guidelines.
Then, said patients were treated with the pharmaceutical composition comprising the prodrug according to the present invention, that is, the prodrug (4-OHA) was applied topically to the affected breast.

[2] = skin penetration on topical administration; details: topical administration (ointment, lotion or cream)
From the text: After topical administration, the compound(s) penetrate through the skin and concentrate in the fatty tissue.

[3] = tested on: ER positive breast cancer; test: shrinking of breast tumor, 2.5 wt.-% 4-OHA crème (Example 1.2); assay type: in vivo, human; details: 4 ml crème with 2.5 wt.-% 4-OHA, 2 times/day, after 3-5 weeks
Protocol: 1.2 Application of 4 ml of a crème (2 times/day) comprising 2.5 wt.-% 4-OHA to a breast suffering from an ER positive breast cancer.

[4] = tested on: ERβ positive breast cancer tumors; test: shrinking of breast tumor tissue, topical prodrug (Example 1.1); assay type: in vivo, human; details: patients, tumors max 2 cm, after three weeks of treatment
Protocol: 1.1 Patients that were diagnosed (by mammography) with ERβ positive breast cancer tumors with a maximum size of 2 cm were treated with the pharmaceutical composition comprising the prodrug of the present invention: The prodrug was applied topically to the affected breast.

ERβ = ERβ (Homo sapiens, UniProt Q92731); test: binding affinity towards ERβ compared with ERα; details: fold higher for ERβ
ERβ, sequence (Q92731 whole entry): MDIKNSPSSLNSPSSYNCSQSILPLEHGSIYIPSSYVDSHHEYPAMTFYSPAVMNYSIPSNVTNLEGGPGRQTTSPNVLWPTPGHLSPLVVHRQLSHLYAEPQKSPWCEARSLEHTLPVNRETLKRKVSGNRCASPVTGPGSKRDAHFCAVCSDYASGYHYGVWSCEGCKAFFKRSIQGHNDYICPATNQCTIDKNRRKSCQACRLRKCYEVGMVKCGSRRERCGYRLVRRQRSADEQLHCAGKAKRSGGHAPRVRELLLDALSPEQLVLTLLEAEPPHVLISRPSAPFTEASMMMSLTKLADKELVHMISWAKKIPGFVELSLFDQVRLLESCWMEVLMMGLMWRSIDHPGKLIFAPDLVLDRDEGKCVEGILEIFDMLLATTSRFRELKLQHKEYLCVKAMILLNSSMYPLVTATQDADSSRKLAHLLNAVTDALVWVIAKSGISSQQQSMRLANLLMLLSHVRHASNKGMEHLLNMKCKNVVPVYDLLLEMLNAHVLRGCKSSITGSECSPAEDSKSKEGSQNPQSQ

Question: Which “end concentration from which significant inhibition of cell growth takes place” value (MDA-MB-231 cells; 6 d incubation, absorption at 492 nm) does the source give for `C[C@]12CC[C@H]3[C@@H](CCC4=C(O)C(=O)CC[C@@]43C)[C@@H]1CC[C@@H]2O` [4-OHT, 4-hydroxytestosterone] here?
Answer: at least 5 μM/L

Question: And the inhibition at 5 µM (MDA-MB-231 cells; Homo sapiens, MDA-MB-231, 144 h, 5 μM/L 4-OHT, cell concentration 1.0e3, 6 d, read-out: inhibition of cell growth)?
Answer: ~50%

Question: What about the inhibition at 20 µM (MDA-MB-231 cells; Homo sapiens, MDA-MB-231, 144 h, 20 μM/L 4-OHT, 6 d, read-out: inhibition of cell growth) of the same compound?
Answer: 75 to 80%

Question: For `CC(C)(C#N)c1cc(Cn2cncn2)cc(C(C)(C)C#N)c1` [Anastrozol], which treatment success [1] is on record?
Answer: not successful

Question: For `C[C@]12CCC(=O)C(O)=C1CC[C@@H]1[C@@H]2CC[C@]2(C)C(=O)CC[C@@H]12` [4-OHA, 4-hydroxyandrost-4-ene-3,17-dione], which skin penetration capabilities [2] is on record?
Answer: excellent skin penetration capabilities

Question: What about the “size of the tumor” value [3] of the same compound?
Answer: significantly decreased

Question: What about the tumor size [4] of the same compound?
Answer: reduction in tumor size

Question: What about the “patients with stabilisation of the disease over 6 months” value ([1]; topical, after unsuccessful Anastrozol or Letrozol treatment) of the same compound?
Answer: 50%

Question: For `N#Cc1ccc(C(c2ccc(C#N)cc2)n2cncn2)cc1` [Letrozol], which treatment success [1] is on record?
Answer: not successful

Question: With `C[C@]12CC[C@H]3[C@@H](CCC4C(O)C(O)CC[C@@]43C)[C@@H]1CC[C@@H]2O` (stereo partly drawn) [4-OHBA, 4-hydroxy-5-alpha-androstane-3-beta,17beta-diol] as the compound, how does the “affinity towards ERβ relative to affinity towards ERα” value (ERβ) read?
Answer: about 10 times
